From publication PMC6410080 (Viruses, 2019)
Counter-ions that a name gives are not always drawn. Like-named read-outs stand apart in the source and are kept apart here.

Experiments:
VSV_Blam_VLP fusion = assay: microbe, parasite or virus in culture; format: cell-based; details: Vesicular stomatitis virus, HeLa Kyoto, read-out: Inhibition of VSV_Blam_VLP fusion compared to DMSO controls
in vitro [1] = details: human
EBOV VLP = assay: microbe, parasite or virus in culture; format: cell-based, Ebola virus; details: Zaire ebolavirus, HeLa Kyoto, 48 h, read-out: IC50 EBOV
DENV-2 = DENV-2 infection assay / secondary screen (E protein staining); format: cell-based, dengue virus serotype 2; details: Dengue virus, DENV2, Huh-7, 24 h; for inhibition at 10 µM: read-out: % inhibition (DENV-2 screen)
SINV = assay: microbe, parasite or virus in culture; format: cell-based, Sindbis virus; details: Sindbis virus, HeLa Kyoto, read-out: IC50 SINV
ZIKV [2] = assay: microbe, parasite or virus in culture; format: cell-based, Zika virus; details: Zika virus, Huh-7, read-out: IC50 ZIKV
ZIKV [3] = details: AG129 mice; for Infectious virus in the blood at day 7 p.i.: immunofocus assay
SFV [4] = format: cell-based, Semliki Forest virus
Huh7 cells = details: human
HIV-1 = assay: microbe, parasite or virus in culture; format: cell-based, human immunodeficiency virus type 1
YF17D = assay: organism not typed; format: cell-based, yellow fever 17D; details: Huh-7, read-out: IC50 YF17D
SFV E1 trimer formation = details: HeLa Kyoto, MOI 100; Chloroquine 100 μM
VACV = assay: microbe, parasite or virus in culture; format: cell-based, vaccinia virus
DENV-3 = assay: microbe, parasite or virus in culture; format: cell-based, dengue virus; details: Dengue virus, DENV3, Huh-7, read-out: IC50 DENV-3
SFV [5] = assay: microbe, parasite or virus in culture; format: cell-based, Semliki Forest virus; details: Semliki Forest virus; for IC50: HeLa Kyoto, read-out: IC50 SFV (7 h); for inhibition at 10 µM: M-HeLa, 7 h, read-out: % inhibition (SFV screen)
HeLa Kyoto cells = details: human, 7 h
H5N1 VLP = assay: microbe, parasite or virus in culture; format: cell-based, influenza H5N1; details: Influenza A virus, H5N1, HeLa Kyoto, 48 h, read-out: IC50 H5N1
DENV-1 = assay: microbe, parasite or virus in culture; format: cell-based, dengue virus; details: Dengue virus, DENV1, Huh-7, read-out: IC50 DENV-1
in vitro [6] = details: human; remark: listed apart in the source
RABV VLP = assay: microbe, parasite or virus in culture; format: cell-based, rabies virus; details: Lyssavirus rabies, HeLa Kyoto, 24 h, read-out: IC50 RABV
[7] = mouse, in vivo; cited from earlier work
HCV = assay: microbe, parasite or virus in culture; format: cell-based, hepatitis C virus; details: Hepatitis C virus, Huh7.5, read-out: IC50 HCV
HSV-1 = assay: microbe, parasite or virus in culture; format: cell-based, herpes simplex virus 1; details: 8 h
VSV VLP = assay: microbe, parasite or virus in culture; format: cell-based, vesicular stomatitis virus; details: Vesicular stomatitis virus, HeLa Kyoto, 24 h, read-out: IC50 VSV
in vivo = details: CD1, mouse, 1 mg/kg
SFV internalisation = format: cell-based, Semliki Forest virus
[8] = 10 mg/kg
viruses/VLPs tested = format: cell-based
[9] = system: Renilla luciferase expression (protein synthesis); format: cell-based
[10] = system: DID-labelled SFV hemifusion/fusion; format: cell-based, Semliki Forest virus; details: HeLa Kyoto, 10 μM (20 μM Raloxifene; Bafilomycin 100 nM), 40 min at 37 °C
[11] = read-out: IC50 DENV-2 (7 + 17 h)

Row | Compound | inhibition at 10 µM (VSV_Blam_VLP fusion) [%] | IC50 (EBOV VLP) [µM] | inhibition at 10 µM (DENV-2) [%] | IC50 (DENV-2; [11]) [µM] | IC50 (DENV-2; read-out: IC50 DENV-2 (24 h)) [µM] | IC50 (SINV) [µM] | IC50 (ZIKV [2]) [µM] | Infectious virus in the blood at day 7 p.i. (ZIKV [3]) | Activity when added before SFV or 30 and 60 min after internalisation (SFV [4]) | TC50 DENV-2 (7 + 17 h) (Huh7 cells) [µM] | IC50 (YF17D) [µM] | SFV E1 trimer formation (SFV E1 trimer formation) | IC50 (DENV-3) [µM] | IC50 (SFV [5]) [µM] | inhibition at 10 µM (SFV [5]) [%] | IC50 (H5N1 VLP) [µM] | IC50 (DENV-1) [µM] | IC50 (RABV VLP) [µM] | IC50 (HCV) [µM] | IC50 (VSV VLP) [µM] | other results
1 | CC[C@@]1([C@@H]2O[C@@H]([C@H]3O[C@@](O)(CO)[C@H](C)C[C@@H]3C)C[C@@H]2C)CC[C@H]([C@]2(C)CC[C@]3(C[C@H](O)[C@@H](C)[C@@H]([C@@H](C)[C@@H](OC)[C@H](C)C(=O)O)O3)O2)O1 [Monensin, Monensin sodium salt] | > 50 | 4.5 | 100 | 4.5 | 3.8 | 0.4 | 5.5 | cleared infectious virus from the blood by day 7 | progressive and more dramatic decrease in activity | >50 | < 0.3 | prevented trimer formation | ~3.6 | 1.1 | 81.4 | 0.9 | 6.2 | 0.8 | 2.5 | 0.7 | viability at 10 µM (in vitro [1]): 81%; ZIKV blood titres at day 1 p.i. (ZIKV [3]; qRT-PCR and immunofocus assay, vs untreated): significantly reduced blood titres; TC50 DENV-2 (24 h) (Huh7 cells; 24 h): >50 µM; IC50 HIV (HIV-1; virus, HeLa TZM-bl, 24 h): No inhibition; IC50 VACV (VACV): No inhibition; TC50 SFV (7 h) (HeLa Kyoto cells): >50 µM; TC50 SFV (7h) (HeLa Kyoto cells): >50000 µM; viability at 10 µM (in vitro [6]; % viability (SFV screen)): 108%; Well tolerated dose [7]: up to 70 mg/kg; IC50 HSV (Vero) (HSV-1; virus, Vero cells): No inhibition
2 | CC(C)(C)c1cc(C=C(C#N)C#N)cc(C(C)(C)C)c1O [Tyrphostin A9] | > 50 | 3.2 | 99.7 | 1.2 | 0.4 | ~0.8 | < 0.3 | infectious virus was detected in only two of six mice | minor but reproducible decrease in activity | >50 | < 0.3 | No trimers were observed | 1.2 | 2.9 | 73.5 | < 0.5 | 1.4 | 1.4 | < 0.3 | 4.1 | viability at 24 h, 10 µM (in vitro [1]): 50.5%; ZIKV blood titres at days 1 and 3 (ZIKV [3]; Tyrphostin A9 1 mg/kg PO, vs untreated): only minor and non significant differences; ZIKV-infected CD14+CD11c+ dendritic cells in blood, day 7 p.i. (ZIKV [3]; without statistical significance): fewer infected CD14+CD11c+ dendritic cells; Reason for suspending administration (ZIKV [3]; Tyrphostin A9 1 mg/kg PO, after the fourth administration): toxicity and weight loss; Time of Addition (SFV [4]): Before and after fusion; concentration at 2 h (in vivo): 20 nM; concentration at 8 h (in vivo): 760 nM; Tmax (in vivo; po): 1 h; TC50 DENV-2 (24 h) (Huh7 cells): 28.5 µM; IC50 (HIV-1; Human immunodeficiency virus 1, 24 h, read-out: IC50 HIV): 1.1 µM; Internalised SFV E1/E2 after subtilisin treatment (SFV internalisation): Loss of E1/E2; Toxicity [8]: toxicity; Viruses Inhibited (viruses/VLPs tested): All tested; Decrease of Renilla signal (protein synthesis) [9]: more than 50%; IC50 (VACV; Orthopoxvirus vaccinia, HeLa Kyoto, 8 h, read-out: IC50 VACV): 3.4 µM; Blood peak (Tyrphostin A9 1 mg/kg IP): 5 µM; Peak blood concentration (Tyrphostin A9 1 mg/kg PO, CD1 mice): 1.52 µM; viability at 10 µM (in vitro [6]): 105%; Inhibition of DID-SFV de-quenching (in words) [10]: Strong inhibition of de-quenching; IC50 (HSV-1; Human alphaherpesvirus 1, Vero, read-out: IC50 HSV (Vero)): 1.5 µM
